Several values for one entry are separate records, joined by “and”; a condition that tells them apart may be missing. Identical values can stand only once. Toxic doses and inconclusive results are not listed. Rule for the calls: active = survival T/C of 150% or more; inactive = T/C below 125% in these data.
Tested on: P388 leukemia ip, CD2F1 mice, survival T/C
Assay: NCI In Vivo Anticancer Drug Screen. Data for tumor model P388 Leukemia (intraperitoneal) in CD2F1 (CDF1) mice
Conditions: endpoint: median survival time, higher = longer survival
Outline: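 Mice carrying the transplanted tumor received test compound or vehicle. Survival was recorded in each group, and the value is the treated-group measurement divided by that of the vehicle-treated control group.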

[1] = dose: 200.0 mg/kg/injection, schedule: Q01DX005 (ip), vehicle: saline with Tween-80
[2] = dose: 50.0 mg/kg/injection, schedule: Q01DX009 (ip), vehicle: saline with Tween-80
[3] = dose: 100.0 mg/kg/injection, schedule: Q01DX009 (ip), vehicle: saline with Tween-80
[4] = dose: 50.0 mg/kg/injection, schedule: Q01DX005 (ip), vehicle: Klucel (hydroxypropylcellulose) (HPC)
[5] = dose: 100.0 mg/kg/injection, schedule: Q01DX005 (ip), vehicle: Klucel (hydroxypropylcellulose) (HPC)
[6] = dose: 200.0 mg/kg/injection, schedule: Q01DX005 (ip), vehicle: Klucel (hydroxypropylcellulose) (HPC)
[7] = dose: 50.0 mg/kg/injection, schedule: Q01DX005 (ip), vehicle: saline with Tween-80
[8] = dose: 100.0 mg/kg/injection, schedule: Q01DX005 (ip), vehicle: saline with Tween-80
[9] = dose: 100.0 mg/kg/injection, schedule: Q04DX003 (ip), vehicle: Klucel (hydroxypropylcellulose) (HPC)
[10] = dose: 200.0 mg/kg/injection, schedule: Q04DX003 (ip), vehicle: Klucel (hydroxypropylcellulose) (HPC)
[11] = dose: 400.0 mg/kg/injection, schedule: Q04DX003 (ip), vehicle: Klucel (hydroxypropylcellulose) (HPC)
[12] = dose: 50.0 mg/kg/injection, schedule: Q01DX009 (ip), vehicle: Klucel (hydroxypropylcellulose) (HPC)
[13] = dose: 100.0 mg/kg/injection, schedule: Q01DX009 (ip), vehicle: Klucel (hydroxypropylcellulose) (HPC)
[14] = dose: 200.0 mg/kg/injection, schedule: Q01DX009 (ip), vehicle: Klucel (hydroxypropylcellulose) (HPC)
[15] = dose: 50.0 mg/kg/injection, schedule: Q01DX005 (ip), vehicle: saline
[16] = dose: 100.0 mg/kg/injection, schedule: Q01DX005 (ip), vehicle: saline
[17] = dose: 200.0 mg/kg/injection, schedule: Q01DX009 (ip), vehicle: saline with Tween-80

Measured: T/C

O=C(NC1CCC(CC2CCC(NC(=O)C34CC5CC(CC(C5)C3)C4)CC2)CC1)C12CC3CC(CC(C3)C1)C2 (configuration not stated)
inactive: dose: 0.4 mg/kg/injection, schedule: Q01DX005 (ip), vehicle: saline with Tween-80 97 % of control | dose: 0.8 mg/kg/injection, schedule: Q01DX005 (ip), vehicle: saline with Tween-80 98 % of control | dose: 1.56 mg/kg/injection, schedule: Q01DX005 (ip), vehicle: saline with Tween-80 91 % of control | dose: 1.6 mg/kg/injection, schedule: Q01DX005 (ip), vehicle: saline with Tween-80 97 % of control | dose: 3.2 mg/kg/injection, schedule: Q01DX005 (ip), vehicle: saline with Tween-80 87 % of control | dose: 6.25 mg/kg/injection, schedule: Q01DX005 (ip), vehicle: saline with Tween-80 89 % of control | [1] 86 % of control

COc1ccc(C(F)C(N)C#N)cc1 (configuration not stated)
inactive: dose: 60.0 mg/kg/injection, schedule: Q01DX005 (ip), vehicle: saline 109 % of control | dose: 120.0 mg/kg/injection, schedule: Q01DX005 (ip), vehicle: saline 98 % of control | dose: 240.0 mg/kg/injection, schedule: Q01DX005 (ip), vehicle: saline 107 % of control

ClC(Cl)(Cl)Sn1cccn1
inactive: [2] 104 % of control | [3] 97 % of control

CCOCCOC(=O)c1nn(-c2ccc(Cl)cc2)c2c1C(=O)c1ccccc1C2=O
inactive: [4] 94 % of control | [5] 100 % of control | [6] 101 % of control

O=C(O)c1cc2ccccc2[nH]c1=O
inactive: [4] 97 % of control | [5] 97 % of control | [6] 104 % of control

CCCCOP(O)(=S)OCCCC.[Fe]
inactive: dose: 50.0 mg/kg/injection, schedule: Q01DX001 (ip), vehicle: Klucel (hydroxypropylcellulose) (HPC) 102 % of control | dose: 100.0 mg/kg/injection, schedule: Q01DX001 (ip), vehicle: Klucel (hydroxypropylcellulose) (HPC) 102 % of control | dose: 200.0 mg/kg/injection, schedule: Q01DX001 (ip), vehicle: Klucel (hydroxypropylcellulose) (HPC) 101 % of control

CCOC(=O)/C=C(\C)Nc1cccc2c(N/C(C)=C/C(=O)OCC)cccc12
inactive: [7] 105 % of control | [8] 100 % of control | [1] 98 % of control

O=[N+]([O-])c1ccc(C(Cl)C2(Br)C=c3ccccc3=C2)cc1 (configuration not stated)
inactive: [9] 100 % of control | [10] 100 % of control | [11] 95 % of control

O=C1CCS(=O)(=O)C(=O)N1c1ccccc1
inactive: [12] 100 % of control | [13] 97 % of control | [14] 87 % of control

C[Si]c1ccccc1CN(C)C
inactive: [15] 106 % of control | [16] 102 % of control

CCN(CC)Cc1cc(C)c(O)c(N=Nc2ccc3c(c2)c2ccccc2n3CC)c1C
inactive: [2] 102 % of control | [3] 110 % of control | [17] 101 % of control

O=C1C(Cl)=C(Sc2nc3ccccc3s2)C(=O)c2ccccc21
inactive: dose: 12.5 mg/kg/injection, schedule: Q01DX005 (ip), vehicle: saline with Tween-80 100 % of control | dose: 25.0 mg/kg/injection, schedule: Q01DX005 (ip), vehicle: saline with Tween-80 100 % of control

CCCCCCCCCCCC(=O)NCCc1ccc(O)c(O)c1
inactive: dose: 25.0 mg/kg/injection, schedule: Q04DX003 (ip), vehicle: Klucel (hydroxypropylcellulose) (HPC) 113 % of control | dose: 50.0 mg/kg/injection, schedule: Q04DX003 (ip), vehicle: Klucel (hydroxypropylcellulose) (HPC) 115 % of control | [9] 119 % of control and 120 % of control | [10] 113 % of control and 120 % of control | [11] 89 % of control

Nc1ccccc1-n1nc2ccc3ccccc3c2n1
inactive: dose: 100.0 mg/kg/injection, schedule: Q04DX003 (ip), vehicle: saline with Tween-80 100 % of control | dose: 200.0 mg/kg/injection, schedule: Q04DX003 (ip), vehicle: saline with Tween-80 95 % of control | dose: 400.0 mg/kg/injection, schedule: Q04DX003 (ip), vehicle: saline with Tween-80 95 % of control

SCC(CS)=C(CS)CS
inactive: dose: 60.0 mg/kg/injection, schedule: Q01DX005 (ip), vehicle: saline with Tween-80 112 % of control | dose: 120.0 mg/kg/injection, schedule: Q01DX005 (ip), vehicle: saline with Tween-80 113 % of control | dose: 240.0 mg/kg/injection, schedule: Q01DX005 (ip), vehicle: saline with Tween-80 106 % of control

NC1(C(=O)O)CCSCC1
inactive: [4] 101 % of control | [5] 102 % of control | [6] 90 % of control

O/N=C1\CCC2CCCCC2C1 (configuration not stated)
inactive: dose: 50.0 mg/kg/injection, schedule: Q01DX009 (ip), vehicle: saline 103 % of control | dose: 100.0 mg/kg/injection, schedule: Q01DX009 (ip), vehicle: saline 103 % of control | dose: 200.0 mg/kg/injection, schedule: Q01DX009 (ip), vehicle: saline 104 % of control

Cl/N=N/c1nc(-c2ccccc2)[nH]c1-c1ccccc1
inactive: dose: 50.0 mg/kg/injection, schedule: Q01DX001 (ip), vehicle: suspension in saline 109 % of control | dose: 100.0 mg/kg/injection, schedule: Q01DX001 (ip), vehicle: suspension in saline 101 % of control | dose: 200.0 mg/kg/injection, schedule: Q01DX001 (ip), vehicle: suspension in saline 99 % of control

CN(C)S(=O)(=O)Nc1cccc(Br)c1
inactive: [2] 103 % of control | [3] 102 % of control | [17] 106 % of control

CCOC(=O)c1cnc2cc3c(cc2c1Nc1cccc(Cl)c1)OCO3
inactive: dose: 60.0 mg/kg/injection, schedule: Q01DX005 (ip), vehicle: Klucel (hydroxypropylcellulose) (HPC) 105 % of control | dose: 120.0 mg/kg/injection, schedule: Q01DX005 (ip), vehicle: Klucel (hydroxypropylcellulose) (HPC) 95 % of control | dose: 240.0 mg/kg/injection, schedule: Q01DX005 (ip), vehicle: Klucel (hydroxypropylcellulose) (HPC) 108 % of control

CCOC(=O)CC(=O)Cc1oc2c(C(C)=O)c(O)c(C)c(O)c2c1C
inactive: [4] 86 % of control | [5] 87 % of control | [6] 90 % of control

c1ccc2cc3cc(N=Nc4ccc5cc6ccccc6cc5c4)ccc3cc2c1
inactive: dose: 100.0 mg/kg/injection, schedule: Q04DX002 (ip), vehicle: saline with Tween-80 108 % of control | dose: 200.0 mg/kg/injection, schedule: Q04DX002 (ip), vehicle: saline with Tween-80 104 % of control | dose: 400.0 mg/kg/injection, schedule: Q04DX002 (ip), vehicle: saline with Tween-80 106 % of control

CC(C)NC1(N(C)C)N=C(N(C)C)N=C(N(C)C)O1 (configuration not stated)
inactive: [15] 101 % of control | [16] 101 % of control

Cn1c2ccc(Cl)cc2c2oc(-c3nn[nH]n3)cc(=O)c21
inactive: [7] 102 % of control | [8] 107 % of control | [1] 97 % of control

COc1ncc[n+]([O-])n1
inactive: [2] 103 % of control | [3] 100 % of control and 108 % of control and 111 % of control | [17] 100 % of control and 102 % of control and 123 % of control | dose: 400.0 mg/kg/injection, schedule: Q01DX009 (ip), vehicle: saline with Tween-80 93 % of control

COc1ccc2c(c1)CCCN2
inactive: dose: 25.0 mg/kg/injection, schedule: Q01DX009 (ip), vehicle: saline with Tween-80 105 % of control and 108 % of control | [2] 103 % of control and 108 % of control | [3] 117 % of control

CC(=O)Oc1cc2c(c(OC(C)=O)n1)C(C)N(Cc1ccccc1)C2=O (configuration not stated)
inactive: [12] 106 % of control | [13] 106 % of control | [14] 115 % of control

COc1cc(CC2c3cc(OC)c(OC)cc3CC[N+]2(C)C)c(Oc2cc(CC3c4cc(OC)c(OC)cc4CC[N+]3(C)C)ccc2OC)cc1OC (configuration not stated)
inactive: dose: 1.56 mg/kg/injection, schedule: Q04DX003 (ip), vehicle: water 109 % of control | dose: 3.13 mg/kg/injection, schedule: Q04DX003 (ip), vehicle: water 103 % of control

CCCOC(=O)Nc1ccc2nc(N(C)C)sc2c1
inactive: dose: 50.0 mg/kg/injection, schedule: Q01DX009 (ip), vehicle: suspension in saline 99 % of control | dose: 100.0 mg/kg/injection, schedule: Q01DX009 (ip), vehicle: suspension in saline 97 % of control | dose: 200.0 mg/kg/injection, schedule: Q01DX009 (ip), vehicle: suspension in saline 102 % of control

Cc1cccc(/C=N/Nc2cc(C)nc3ccccc23)n1
inactive: [12] 109 % of control | [13] 118 % of control | [14] 117 % of control

From PubChem BioAssay AID330 (DTP/NCI, 2004)
